Test results from the kinase profiling compilation of Christmann-Franck et al. (2016).

Key:
Experiment in all cases: radiometric filter-binding kinase assay
[1] = biological target: MAPK1 (human) (UniProt P28482)
[2] = biological target: PLK1 (human) (UniProt P53350)
[3] = biological target: BRSK1 (human) (UniProt Q8TDC3)
[4] = biological target: GSK3B (human) (UniProt P49841)
[5] = test system: AKT1 (human), P31749 [S473D]
[6] = biological target: MAPKAPK3 (human) (UniProt Q16644)
[7] = biological target: MAP3K1 (human) (UniProt Q13233)
[8] = biological target: SRPK1 (human) (UniProt Q96SB4)
[9] = biological target: CSK (human) (UniProt P41240)
[10] = biological target: BRSK2 (human) (UniProt Q8IWQ3)
[11] = biological target: CSNK1D (human) (UniProt P48730)
[12] = biological target: MKNK2 (human) (UniProt Q9HBH9)
[13] = biological target: RPS6KA3 KD1 KD2 (human) (UniProt P51812)
[14] = biological target: BTK (human) (UniProt Q06187)
[15] = biological target: EPHA4 (human) (UniProt P54764)
[16] = biological target: AURKA (human) (UniProt O14965)
[17] = biological target: MAPK9 (human) (UniProt P45984)
[18] = biological target: PAK7 (human) (UniProt Q9P286)
[19] = biological target: TBK1 (human) (UniProt Q9UHD2)
[20] = biological target: RPS6KA5 KD1 KD2 (human) (UniProt O75582)
[21] = biological target: STK11 CAB39 STRADA (human) (UniProt Q9Y376+Q7RTN6+Q15831)
[22] = biological target: ERBB4 (human) (UniProt Q15303)
[23] = biological target: IKBKB (human) (UniProt O14920)
[24] = biological target: EEF2K (human) (UniProt O00418)
[25] = biological target: HIPK1 (human) (UniProt Q86Z02)
[26] = biological target: MAPK3 (human) (UniProt P27361)
[27] = biological target: MAPK8 (human) (UniProt P45983)
[28] = biological target: MAPK15 (human) (UniProt Q8TD08)
[29] = biological target: HIPK3 (human) (UniProt Q9H422)
[30] = test system: PAK2 (human), Q13177 [T402E]
[31] = biological target: NEK6 (human) (UniProt Q9HC98)
[32] = biological target: FGFR1 (human) (UniProt P11362)

Sequence of BRSK2 (human) (Q8IWQ3 whole entry, looked up): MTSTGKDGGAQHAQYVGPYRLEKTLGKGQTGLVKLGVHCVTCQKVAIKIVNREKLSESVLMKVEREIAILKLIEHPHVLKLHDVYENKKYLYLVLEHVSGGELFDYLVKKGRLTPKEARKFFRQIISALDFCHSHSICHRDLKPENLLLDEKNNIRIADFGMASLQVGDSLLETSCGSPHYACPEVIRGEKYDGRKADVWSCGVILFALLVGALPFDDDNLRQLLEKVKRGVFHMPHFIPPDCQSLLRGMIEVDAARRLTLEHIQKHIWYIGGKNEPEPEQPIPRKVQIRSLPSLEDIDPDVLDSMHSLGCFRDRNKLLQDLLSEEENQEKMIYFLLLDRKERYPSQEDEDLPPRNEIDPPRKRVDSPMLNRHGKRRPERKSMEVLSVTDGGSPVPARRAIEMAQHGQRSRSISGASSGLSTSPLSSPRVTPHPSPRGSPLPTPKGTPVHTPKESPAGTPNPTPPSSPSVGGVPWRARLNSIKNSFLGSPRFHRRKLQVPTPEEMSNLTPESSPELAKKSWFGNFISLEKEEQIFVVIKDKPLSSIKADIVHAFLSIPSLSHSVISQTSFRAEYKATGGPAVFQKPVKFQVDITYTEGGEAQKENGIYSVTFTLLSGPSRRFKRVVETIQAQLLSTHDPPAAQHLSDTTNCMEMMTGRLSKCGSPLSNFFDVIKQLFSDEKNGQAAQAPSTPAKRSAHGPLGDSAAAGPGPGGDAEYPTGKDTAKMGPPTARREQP
Sequence of MKNK2 (human) (Q9HBH9 whole entry, looked up): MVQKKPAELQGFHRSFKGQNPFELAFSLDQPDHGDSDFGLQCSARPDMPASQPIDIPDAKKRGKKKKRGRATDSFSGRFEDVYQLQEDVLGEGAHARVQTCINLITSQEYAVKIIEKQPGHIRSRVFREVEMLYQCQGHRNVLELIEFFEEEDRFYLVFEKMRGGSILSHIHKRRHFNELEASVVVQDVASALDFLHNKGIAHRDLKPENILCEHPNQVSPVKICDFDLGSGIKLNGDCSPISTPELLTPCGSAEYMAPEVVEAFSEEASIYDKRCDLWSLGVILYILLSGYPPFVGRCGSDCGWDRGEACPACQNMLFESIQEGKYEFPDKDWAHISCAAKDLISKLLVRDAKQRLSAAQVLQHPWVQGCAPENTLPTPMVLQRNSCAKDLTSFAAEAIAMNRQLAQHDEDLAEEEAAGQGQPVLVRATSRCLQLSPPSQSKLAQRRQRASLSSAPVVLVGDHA
Sequence of CSNK1D (human) (P48730 whole entry, looked up): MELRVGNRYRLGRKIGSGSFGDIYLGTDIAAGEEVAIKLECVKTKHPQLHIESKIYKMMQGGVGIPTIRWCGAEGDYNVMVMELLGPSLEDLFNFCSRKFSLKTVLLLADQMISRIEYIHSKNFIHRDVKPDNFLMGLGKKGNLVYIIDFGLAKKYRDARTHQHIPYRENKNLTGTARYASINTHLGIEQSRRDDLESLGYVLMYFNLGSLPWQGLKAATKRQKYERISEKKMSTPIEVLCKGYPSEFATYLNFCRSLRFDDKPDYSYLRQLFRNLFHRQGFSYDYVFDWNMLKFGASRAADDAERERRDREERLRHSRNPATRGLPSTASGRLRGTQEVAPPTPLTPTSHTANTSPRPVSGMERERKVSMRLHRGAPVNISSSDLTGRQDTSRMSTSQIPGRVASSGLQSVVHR
Sequence of NEK6 (human) (Q9HC98 whole entry, looked up): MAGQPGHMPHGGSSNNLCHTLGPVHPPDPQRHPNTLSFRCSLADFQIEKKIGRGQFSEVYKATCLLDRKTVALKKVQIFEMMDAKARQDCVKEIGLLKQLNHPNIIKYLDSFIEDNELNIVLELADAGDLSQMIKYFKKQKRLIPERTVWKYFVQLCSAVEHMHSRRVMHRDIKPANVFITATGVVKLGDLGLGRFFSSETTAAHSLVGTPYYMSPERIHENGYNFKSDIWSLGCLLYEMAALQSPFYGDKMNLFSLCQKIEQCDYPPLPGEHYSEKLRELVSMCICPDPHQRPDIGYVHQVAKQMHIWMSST
Sequence of EPHA4 (human) (P54764 whole entry, looked up): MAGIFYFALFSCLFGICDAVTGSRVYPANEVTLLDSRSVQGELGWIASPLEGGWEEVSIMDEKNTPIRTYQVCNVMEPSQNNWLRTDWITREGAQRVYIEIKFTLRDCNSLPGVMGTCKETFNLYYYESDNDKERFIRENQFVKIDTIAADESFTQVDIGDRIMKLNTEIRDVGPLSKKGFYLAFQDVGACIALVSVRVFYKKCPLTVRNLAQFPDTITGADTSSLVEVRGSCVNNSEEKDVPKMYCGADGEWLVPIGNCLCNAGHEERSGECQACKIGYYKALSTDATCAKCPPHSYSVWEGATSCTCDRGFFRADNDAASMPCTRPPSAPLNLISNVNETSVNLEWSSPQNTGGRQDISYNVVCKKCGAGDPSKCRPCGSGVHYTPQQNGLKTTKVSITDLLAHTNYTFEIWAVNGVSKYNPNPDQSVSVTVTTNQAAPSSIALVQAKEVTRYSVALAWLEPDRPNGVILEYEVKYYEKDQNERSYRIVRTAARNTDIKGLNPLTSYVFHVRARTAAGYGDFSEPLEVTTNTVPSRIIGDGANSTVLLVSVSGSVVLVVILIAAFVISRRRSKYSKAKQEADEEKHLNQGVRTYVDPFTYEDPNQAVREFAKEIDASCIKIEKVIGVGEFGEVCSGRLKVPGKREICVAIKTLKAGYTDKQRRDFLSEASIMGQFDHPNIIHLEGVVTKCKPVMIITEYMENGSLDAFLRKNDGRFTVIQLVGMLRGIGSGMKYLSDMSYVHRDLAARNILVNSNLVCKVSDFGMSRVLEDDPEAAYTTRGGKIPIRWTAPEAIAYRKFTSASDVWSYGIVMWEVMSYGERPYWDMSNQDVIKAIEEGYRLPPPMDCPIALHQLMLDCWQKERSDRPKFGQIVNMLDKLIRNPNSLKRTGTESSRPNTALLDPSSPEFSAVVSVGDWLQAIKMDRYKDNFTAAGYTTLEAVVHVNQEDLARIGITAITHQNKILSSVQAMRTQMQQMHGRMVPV
Sequence of MAP3K1 (human) (Q13233 whole entry, looked up): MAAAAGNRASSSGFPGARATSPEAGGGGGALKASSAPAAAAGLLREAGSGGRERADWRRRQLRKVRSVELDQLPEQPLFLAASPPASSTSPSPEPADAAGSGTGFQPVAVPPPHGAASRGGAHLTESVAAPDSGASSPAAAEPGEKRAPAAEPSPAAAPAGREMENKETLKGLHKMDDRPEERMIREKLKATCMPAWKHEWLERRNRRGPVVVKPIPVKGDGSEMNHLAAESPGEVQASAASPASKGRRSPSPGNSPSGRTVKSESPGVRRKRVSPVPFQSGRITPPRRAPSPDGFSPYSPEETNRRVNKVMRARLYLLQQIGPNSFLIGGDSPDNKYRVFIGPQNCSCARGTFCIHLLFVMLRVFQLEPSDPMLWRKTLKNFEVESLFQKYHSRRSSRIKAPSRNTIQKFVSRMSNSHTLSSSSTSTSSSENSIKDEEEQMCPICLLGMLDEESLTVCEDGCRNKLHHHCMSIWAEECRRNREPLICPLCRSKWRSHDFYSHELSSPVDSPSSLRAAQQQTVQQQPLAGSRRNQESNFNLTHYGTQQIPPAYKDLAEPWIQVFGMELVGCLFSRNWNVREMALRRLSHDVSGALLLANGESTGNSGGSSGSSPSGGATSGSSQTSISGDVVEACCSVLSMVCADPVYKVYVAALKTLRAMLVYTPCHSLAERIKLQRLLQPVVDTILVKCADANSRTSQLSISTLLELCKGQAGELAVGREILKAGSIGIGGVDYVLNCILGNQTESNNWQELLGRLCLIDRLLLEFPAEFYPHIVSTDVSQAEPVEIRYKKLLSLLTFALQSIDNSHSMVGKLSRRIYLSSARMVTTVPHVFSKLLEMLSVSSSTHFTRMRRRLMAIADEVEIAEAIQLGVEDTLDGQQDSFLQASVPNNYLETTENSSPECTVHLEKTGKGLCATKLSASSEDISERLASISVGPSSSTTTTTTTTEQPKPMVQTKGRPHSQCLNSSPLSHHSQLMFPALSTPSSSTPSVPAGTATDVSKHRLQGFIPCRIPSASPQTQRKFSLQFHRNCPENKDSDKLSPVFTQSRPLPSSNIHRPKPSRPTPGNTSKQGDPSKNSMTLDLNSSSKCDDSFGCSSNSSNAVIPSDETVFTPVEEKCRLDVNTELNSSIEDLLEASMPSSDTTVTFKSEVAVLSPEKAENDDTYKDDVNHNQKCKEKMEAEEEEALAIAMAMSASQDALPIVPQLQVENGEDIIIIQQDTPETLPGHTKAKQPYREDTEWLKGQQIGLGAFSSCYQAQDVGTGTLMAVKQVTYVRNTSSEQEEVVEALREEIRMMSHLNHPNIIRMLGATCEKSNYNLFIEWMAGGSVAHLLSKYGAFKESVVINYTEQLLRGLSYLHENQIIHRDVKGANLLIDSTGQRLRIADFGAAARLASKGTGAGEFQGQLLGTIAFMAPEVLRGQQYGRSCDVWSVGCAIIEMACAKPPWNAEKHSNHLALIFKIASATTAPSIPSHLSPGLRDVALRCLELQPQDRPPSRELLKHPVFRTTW
Sequence of MAPK8 (human) (P45983 whole entry, looked up): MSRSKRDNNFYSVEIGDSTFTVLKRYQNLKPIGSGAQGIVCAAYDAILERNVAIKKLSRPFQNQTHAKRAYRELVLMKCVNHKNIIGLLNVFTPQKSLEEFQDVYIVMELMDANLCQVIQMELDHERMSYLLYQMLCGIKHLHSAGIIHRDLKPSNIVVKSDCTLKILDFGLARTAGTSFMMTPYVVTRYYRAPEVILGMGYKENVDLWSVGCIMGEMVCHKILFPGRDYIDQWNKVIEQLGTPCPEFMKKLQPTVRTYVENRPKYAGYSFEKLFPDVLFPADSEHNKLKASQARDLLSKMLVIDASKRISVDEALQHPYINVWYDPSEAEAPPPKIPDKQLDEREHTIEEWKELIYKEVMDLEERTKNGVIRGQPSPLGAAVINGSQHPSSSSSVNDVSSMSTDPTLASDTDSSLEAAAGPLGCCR

residual activity ([1]; compound 0.1 µM): 81% | residual activity ([1]; compound 1.0 µM): 35% | residual activity ([1]; compound 10.0 µM): 6% | residual activity ([2]; compound 0.1 µM): 108% | residual activity ([2]; compound 1.0 µM): 98% | residual activity ([2]; compound 10.0 µM): 97% | residual activity ([3]; compound 0.1 µM): 102% | residual activity ([3]; compound 1.0 µM): 81% | residual activity ([3]; compound 10.0 µM): 89% | residual activity ([4]; compound 0.1 µM): 68% | residual activity ([4]; compound 1.0 µM): 16% | residual activity ([4]; compound 10.0 µM): 4% | residual activity ([5]; compound 0.1 µM): 105% | residual activity ([5]; compound 1.0 µM): 104% | residual activity ([5]; compound 10.0 µM): 108% | residual activity ([6]; compound 0.1 µM): 93% | residual activity ([6]; compound 1.0 µM): 84% | residual activity ([6]; compound 10.0 µM): 69% | residual activity ([7]; compound 0.1 µM): 108% | residual activity ([7]; compound 1.0 µM): 73% | residual activity ([7]; compound 10.0 µM): 30% | residual activity ([8]; compound 0.1 µM): 87% | residual activity ([8]; compound 1.0 µM): 67% | residual activity ([8]; compound 10.0 µM): 17% | residual activity ([9]; compound 0.1 µM): 90% | residual activity ([9]; compound 1.0 µM): 82% | residual activity ([9]; compound 10.0 µM): 58% | residual activity ([10]; compound 0.1 µM): 109% | residual activity ([10]; compound 1.0 µM): 108% | residual activity ([10]; compound 10.0 µM): 130% | residual activity ([11]; compound 0.1 µM): 109% | residual activity ([11]; compound 1.0 µM): 73% | residual activity ([11]; compound 10.0 µM): 18% | residual activity ([12]; compound 1.0 µM): 91% | residual activity ([12]; compound 10.0 µM): 66% | residual activity ([13]; compound 0.1 µM): 108% | residual activity ([13]; compound 1.0 µM): 84% | residual activity ([13]; compound 10.0 µM): 53% | residual activity ([14]; compound 1.0 µM): 94% | residual activity ([14]; compound 10.0 µM): 30% | residual activity ([15]; compound 0.1 µM): 93% | residual activity ([15]; compound 1.0 µM): 89% | residual activity ([15]; compound 10.0 µM): 71% | residual activity ([16]; compound 0.1 µM): 95% | residual activity ([16]; compound 1.0 µM): 99% | residual activity ([16]; compound 10.0 µM): 89% | residual activity ([17]; compound 0.1 µM): 107% | residual activity ([17]; compound 1.0 µM): 82% | residual activity ([17]; compound 10.0 µM): 33% | residual activity ([18]; compound 0.1 µM): 79% | residual activity ([18]; compound 1.0 µM): 37% | residual activity ([18]; compound 10.0 µM): 16% | residual activity ([19]; compound 0.1 µM): 98% | residual activity ([19]; compound 1.0 µM): 91% | residual activity ([19]; compound 10.0 µM): 47% | residual activity ([20]; compound 1.0 µM): 97% | residual activity ([20]; compound 10.0 µM): 70% | residual activity ([21]; compound 0.1 µM): 105% | residual activity ([21]; compound 1.0 µM): 57% | residual activity ([21]; compound 10.0 µM): 23% | residual activity ([22]; compound 1.0 µM): 40% | residual activity ([22]; compound 10.0 µM): 17% | residual activity ([23]; compound 0.1 µM): 96% | residual activity ([23]; compound 1.0 µM): 81% | residual activity ([23]; compound 10.0 µM): 65% | residual activity ([24]; compound 0.1 µM): 124% | residual activity ([24]; compound 1.0 µM): 114% | residual activity ([24]; compound 10.0 µM): 117% | residual activity ([25]; compound 0.1 µM): 86% | residual activity ([25]; compound 1.0 µM): 37% | residual activity ([25]; compound 10.0 µM): 13% | residual activity ([26]; compound 1.0 µM): 58% | residual activity ([26]; compound 10.0 µM): 16% | residual activity ([27]; compound 0.1 µM): 111% | residual activity ([27]; compound 1.0 µM): 69% | residual activity ([27]; compound 10.0 µM): 15% | residual activity ([29]; compound 0.1 µM): 76% | residual activity ([29]; compound 1.0 µM): 52% | residual activity ([29]; compound 10.0 µM): 19% | residual activity ([30]; compound 0.1 µM): 100% | residual activity ([30]; compound 1.0 µM): 93% | residual activity ([30]; compound 10.0 µM): 84% | residual activity ([31]; compound 0.1 µM): 108% | residual activity ([31]; compound 1.0 µM): 98% | residual activity ([31]; compound 10.0 µM): 135% | residual activity ([32]; compound 0.1 µM): 104% | residual activity ([32]; compound 1.0 µM): 96% | residual activity ([32]; compound 10.0 µM): 85%
SMILES: NC(=O)c1cc2c(-c3cccc(-c4ccccc4)c3)cnc(N)c2s1
residual activity ([28]; compound 0.1 µM): 99% | residual activity ([28]; compound 1.0 µM): 50% | residual activity ([28]; compound 10.0 µM): 23%
